Common to all, as to test: DTP human tumour cell line panel, 48 h
In assay [1] the test system is Hs-578T.
Assay [2] concerns OVCAR-3.
Assay [3] relates to SK-MEL-28.
In assay [4] the test system is MDA-N.
Assay [5] has as its system OVCAR-5.
The subject of assay [6] is HCT-116.
Assay [7] relates to HOP-92.
Assay [8] relates to A498.
Assay [9] deals with OVCAR-8.
In assay [10] the test system is HOP-62.
In assay [11] the test system is SF-268.
The subject of assay [12] is T47D.
Assay [13] relates to OVCAR-4.
Assay [14] concerns SF-295.
The test system of assay [15] is SNB-75.
The subject of assay [16] is HL-60.
The subject of assay [17] is KM12.
For assay [18], the system named is M14.
Assay [19] deals with UO-31.

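1) Cells in 96-well plates. 2) Compound, 48 h, 5 concentrations. 3) Linear interpolation between surrounding doses. 4) Unreached endpoint = highest concentration. GI50 = concentration required for 50% inhibition of growth.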 Active and inactive are the calls of the source. No stated cut-off is given here; in the data, active = GI50 up to about 1.1 µM and inactive = higher. Bounds are passed on as bounds.

Broadly, the GI50 is the concentration that inhibits growth by half. As to `CSC(=O)/C=C1\SS/C(=C\C(=O)SC)S1`, the GI50 in [1] is 3.05 µM (inactive); in assay [2], 2.99 µM (inactive); in assay [3] it was 2.42 µM (inactive); in assay [4], 2.51 µM (inactive); in assay [5], 3.98 µM (inactive); in assay [6] it was 1.69 µM (inactive). The GI50 is 2.83 µM (inactive) in assay [7]; 7.89 µM (inactive) in assay [8]; 3.44 µM (inactive) in [9]; 7.35 µM (inactive) in assay [10]; 2.49 µM (inactive) in assay [11]; 5.83 µM (inactive) in [12]. The GI50 in assay [13] is 3.75 µM (inactive); in assay [14], 5.36 µM (inactive); in [15], 2.58 µM (inactive); in assay [16], 1.12 µM (active); in [17], 5.05 µM (inactive); in assay [18], 2.09 µM (inactive). Further, the GI50 in [19] was 2.43 µM (inactive).

For `CC1=NN(C(=O)CC(=O)Nc2ccc(C)cc2)C(=O)C1/N=N\c1ccc(S(=O)(=O)c2ccc(/N=N/C3C(=O)N(C(=O)CC(=O)Nc4ccc(C)cc4)N=C3C)cc2)cc1` (stereo unspecified), the GI50 in [1] is 93.8 µM (inactive); in assay [2], 64.6 µM (inactive); in [3] it was > 100 µM (inactive); in [4], 69.7 µM (inactive); in assay [5], > 100 µM (inactive); in assay [6], 43.4 µM (inactive). Further, the GI50 is > 100 µM (inactive) in assay [7]; > 100 µM (inactive) in assay [8]; 64.6 µM (inactive) in assay [9]; > 100 µM (inactive) in [10]; > 100 µM (inactive) in [11]; > 100 µM (inactive) in assay [12]. Besides, the GI50 in [13] is > 100 µM (inactive); in assay [14], > 100 µM (inactive); in assay [15], > 100 µM (inactive); in assay [16] it was 16.4 µM (inactive); in assay [17] it was 65.6 µM (inactive); in assay [18], 38 µM (inactive). Also, the GI50 in [19] was > 100 µM (inactive).

On to `Cc1[nH]c2ccccc2c1/C=N/c1ccc(/N=C/c2c(C)[nH]c3ccccc23)cc1`, for which the GI50 is 47 µM (inactive) in assay [1]; 41 µM (inactive) in [2]; 97.5 µM (inactive) in [3]; 30.5 µM (inactive) in assay [4]; > 100 µM (inactive) in [5]; 17.5 µM (inactive) in assay [6]. Moreover, the GI50 in assay [7] was 25.5 µM (inactive); in assay [8] it was 52.1 µM (inactive); in [9], 29.7 µM (inactive); in assay [10], 25.1 µM (inactive); in [11], 50 µM (inactive); in assay [12] it was 25.4 µM (inactive). Moreover, the GI50 in assay [13] is 26.4 µM (inactive); in [14], 40.6 µM (inactive); in assay [15] it was 48.3 µM (inactive); in assay [16], 14.7 µM (inactive); in assay [17], 16.4 µM (inactive); in assay [18], 71.3 µM (inactive). Besides, in assay [19], the GI50 is 77.4 µM (inactive).

Consider `CC[C@]1(O)CC(OC2CC(N(C)C)C(O)C(C)O2)c2c(cc3c(c2O)C(=O)c2c(O)cccc2C3=O)[C@@H]1C(=O)OC` (stereo partly specified), for which the GI50 is 0.745 µM (active) in assay [1]; 0.493 µM (active) in [2]; 0.664 µM (active) in [3]; 0.384 µM (active) in [4]; 0.718 µM (active) in [5]; 0.0455 µM (active) in [6]. The GI50 is 0.22 µM (active) in [7]; 0.232 µM (active) in [8]; 0.0743 µM (active) in [9]; 0.146 µM (active) in [10]; 0.12 µM (active) in assay [11]; 0.649 µM (active) in [12]. Further, the 50% growth inhibitory concentration (GI50) is 0.114 µM (active) in assay [13]; 0.195 µM (active) in assay [14]; 0.201 µM (active) in assay [15]; 0.249 µM (active) in assay [16]; 0.225 µM (active) in assay [17]; 0.468 µM (active) in [18]. Further, the GI50 in assay [19] is 0.173 µM (active).

The record behind these values is ChEMBL document CHEMBL1201862, “PubChem BioAssay data set” (2004).
